System: early stressed maternally deprived mice
Assay: Serum stress hormones after acute restraint stress in maternally separated (early stressed) mice fed experimental diets
Format: in vivo, C57BL/6 mice
Method: In this Example, the effects of 2-fucosyl-lactose on the production of serum corticosterone in early stressed maternally deprived mice were analyzed. Initially, mice pups were early stressed using a model of maternal separation. Particularly, one day after delivery, C57BL/6 mice pups were sexed and grouped as sham (non-stressed Control group) or maternally separated (MS—stressed group) animals. From day 2 until day 14 after delivery, the MS pups were removed from the dam and kept isolated for a period of 4 hours per day, typically, from 10:00 AM to 2:00 PM, in a thermostatted cup. During the same time period, pups from the sham group were daily handled for a period of five minutes in order to receive the same grade of habituation to a researcher's hands as the MS pups. Each dam had litters of 4 males and 2 females. Females were allowed to stay with the mother, while males were maternally deprived in order to avoid stressing the dam by removing all of the pups. Additionally, pups from the MS group were prematurely weaned, and thus permanently removed from the dam, at postnatal day 17, whereas sham pups were not weaned until postnatal day 21. At postnatal day 22, all pups in the MS group were pooled and four experimental groups were made before starting nutritional intervention. [table] At the nutritional intervention stage, mice were fed experimental diets for a period of eight weeks. After eight weeks, blood samples were taken from facial veins of the mice in order to measure basal stress hormones (i.e., corticosterone, adrenocorticotropic hormone (ACTH), and melatonin). Stress hormones were measured using luminex technology using a multiplex commercial kit (commercially available from Millipore Corporation, Billerica, Mass.) Seven days later, mice were submitted to an acute stress by restraint protocol. Particularly, mice were placed into a multi-drilled 50-ml centrifuge tube for 20 minutes. After this time, mice were extracted from the tube, and again, blood samples were taken in order to measure serum stress hormones immediately after the acute stressful event (i.e., restraint).

[1] = MS-stressed mice, supplemented diet about 7 mg/mouse/day, post-restraint, stated for any of the experimental groups

Substance: 2-fucosyl-lactose [2-fucosyllactose]
- serum corticosterone levels in response to restraint, compared with MS mice on the control diet (AIN93G diet with about 7 mg/mouse/day for eight weeks, blood taken immediately after 20 minutes restraint, Group C vs MS control Group D): significantly lower
- serum corticosterone levels in response to restraint, compared with normal sham mice (MS-stressed mice, AIN93G diet with about 7 mg/mouse/day for eight weeks, blood taken immediately after 20 minutes restraint, Group C vs sham Group E): equal that of the normal sham mice
- ACTH serum levels post-restraint [1]: no effects
- melatonin serum levels post-restraint [1]: no effects
